This note sets out measurements from US11427615B2, “Peptide compound and application thereof, and composition containing peptide compound” (XDCEXPLORER (SHANGHAI) CO., LTD., priority 2017, dated 2022).

Starred links: 1 amine or outer side, 2 acyl side, 3 side chain; linkers in the order of their positions; H or OH if unused. Non-standard residues stand in square brackets, D forms with d. Residues, ends and D or L forms follow the SMILES beside them. *: point of attachment. X2 = CCCCCCCCCCCC(=O)NCCOCCOCCOCCOCCOCCn1cc(CC(=O)*)nn1; cPrCO(1-aminomethyl) = O=C(C1(CN[*:1])CC1)[*:2]; X16 = O=C(CCC(=O)[*:2])[C@H](Cc1ccccc1)N[*:1]; Ala(4-thiazolyl) = N[C@@H](Cc1cscn1)C(=O)O; PEG8 = NCCOCCOCCOCCOCCOCCOCCOCCOCCC(=O)O; dAla(2-furyl) = N[C@H](Cc1ccco1)C(=O)O; dPhe(4-I) = N[C@H](Cc1ccc(I)cc1)C(=O)O; X9 = CC(C)CC(C(=O)[*:2])C(=S)NCN[*:1]; Arg(Me) = CNC(=N)NCCC[C@H](N)C(=O)O; Palmitoyl = CCCCCCCCCCCCCCCC(=O)*; Hyp = O=C(O)[C@@H]1C[C@@H](O)CN1; Cba = N[C@@H](CC1CCC1)C(=O)O; Nonanoyl = CCCCCCCCC(=O)*; Ac6c = NC1(C(=O)O)CCCCC1; Ac5c = NC1(C(=O)O)CCCC1; Aze = O=C(O)[C@@H]1CCN1; Thp = NC1(C(=O)O)CCOCC1; Deg = CCC(N)(CC)C(=O)O; AEEA = NCCOCCOCC(=O)O; azaGly = NNC(=O)O; βAla = NCCC(=O)O

The target in the first experiment is T1, human kiss1 receptor (GPR54) (Homo sapiens, UniProt Q969F8).
T1 construct: host or cells: NFAT-bla CHO-K1 cells (Chinese hamster ovary), purchased recombinant cell line
T1 sequence (Q969F8 whole entry): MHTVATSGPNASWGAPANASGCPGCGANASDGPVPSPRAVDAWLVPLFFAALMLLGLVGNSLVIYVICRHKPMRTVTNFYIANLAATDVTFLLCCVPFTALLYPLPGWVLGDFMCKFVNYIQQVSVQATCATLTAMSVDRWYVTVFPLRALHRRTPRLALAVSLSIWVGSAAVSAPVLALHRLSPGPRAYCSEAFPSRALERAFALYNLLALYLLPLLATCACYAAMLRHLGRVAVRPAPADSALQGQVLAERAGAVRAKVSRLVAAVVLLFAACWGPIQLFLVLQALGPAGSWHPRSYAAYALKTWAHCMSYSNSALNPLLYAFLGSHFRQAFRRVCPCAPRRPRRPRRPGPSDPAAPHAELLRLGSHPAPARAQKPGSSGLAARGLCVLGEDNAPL
Kind of experiment: Kiss1 receptor (GPR54) binding activity of agonists, FRET detection in NFAT-bla CHO-K1 cells. The experiment is classed as cell-based. The conditions noted are these: GPR54; measured according to the method of effect Embodiment 1; preliminary data; read-out: Preliminary measurement data (GPR54) EC50.
Protocol: Effect Embodiment 1 Determination of Kiss1 Receptor (GPR54) Binding Activity of Kiss1 Receptor (GPR54) Agonist
The binding activity test of each compound from the above the embodiments with kiss1 receptor (GPR54) was performed by fluorescence energy resonance transfer (FRET) detection technology to detect EC50 values of polypeptides and peptide analogs. The cells used in this experiment were NFAT-bla CHO-K1 cells (k1720, invitrogen, thermosher) that express human kiss1 receptor (GPR54). The specific operations were as follows:
Day 1: Seeding Cells in Plate
1. Microscope (CKX41, OLYMPUS), object lens×4 times, ocular lens×10 times. The cells were ensured in a good condition.
2. Digesting the cells, adding 3 ml of 0.05% pancreatin into a culture dish; cells were placed in a 37° C., 5% CO2 incubator for 2 minutes (Thermo Fisher). After the cells became round under the microscope, 7 ml of culture medium was added. The formula of culture medium was as follows: DMEM 90%, dialzedfbS10, NEAA 0.1 mM, HEPES 25 mM, Penicillin 100 U/ml, Streptomycin 100 μm/ml, pH7.3. After blowing and stirring, it was transferred to 15 mL centrifuge tube (430790, Corning). Centrifuge at 1000 rpm for 5 min (5810R, Eppendorf) and the supernatant was discard.
3. Adding 7 mL of culture medium (DMEM+0.1% BSA), it was pipetting into single cell suspension, after counting with Bio-RAD counter, the cell density was adjusted to 312,500 cells/ml.
4. Cells were inoculated into 384 well plates at 32 μL per well, and the cell number was controlled at 10000 cells/well. 32 μl of culture medium was added into the blank control.
Day 2: Dosing and Data Analysis
1) The compound to be tested was prepared into 50 mM working solution with DMSO.
2) 40 μl of the working solution of the compound to be tested was added into column 2 of row A-H of U-shaped 96-well plate (3797, comings), and 60 μl of DMSO was added into column 3-11. 20 μl of compound solution was sucked from the second column to the third column with a multichannel pipette blowing and stirring evenly; 20 μl of compound solution was absorbed from the third column with a multichannel pipette, then added into the fourth column, blowed and stirred to mix well; the compound was serially diluted 4-fold to a total of 10 concentrations. Column 1 and column 12 of 96-well plates were supplemented with 40 μl DMSO.
2. Intermediate Plate Configuration
1) AU-shaped 96-well plate was used, 199 μL of culture medium (DMEM+0.1% BSA) was added to each well, 1 μL of diluted compound (or DMSO) was sucked from 1000× compound plate and added into the 96-well plate at the corresponding position, blowed and stirred to mix well.
2) Homemade positive compounds and compounds to be tested were added. The cell culture plate was took out from the incubator and cells state was observed under microscope. Diluted compound in the intermediate plate or DMSO was added into the cell, 8 μl per well.
3) Cells were cultured in 37° C. and 5% CO2 for 4 hours.
3. The Substrate was Added to Detect the Binding of the Drug to the Receptor
1) 1 μmol/L CCF-4AM solution and buffer solution B, C, D were equilibrated to room temperature. LiveBLAZER™-FRET B/G Loading Kit (K1095, thermo Fisher) containing CCF-4AM and solution B, solution C, solution D were also available from Invitrogen (K1157, thermo Fisher).
2) 6× loading solution was prepared: 6 μl of CCF-4AM dissolved solution A, 60 μl of solution b, 904 μl of solution c, and 30 μl of solution D were pipetted into EP tube, blowed and stirred to mix well.
3) 8 μl of the above-mentioned liquid was sucked with a multichannel pipette, added into a 96-well plate, and incubated for 2 hours at room temperature.
4) The PerkinElmer detector was used to detect the luminous signals of each hole. FI mode, λex=409 nm, λem1=460 nm, λem2=530 nm.
4. Data Processing Using Graphpad Prism 5 (GraphPad Software. Inc)
Effective rate %=(Signal−Min)/(Max−Min)×100%.
As for `CNC(=N)NCCC[C@H](NC(=O)[C@H](CC(C)C)NC(=O)NNC(=O)[C@H](Cc1ccccc1)NC(=O)[C@@H](NC(=O)[C@H](CC(N)=O)NC(=O)C1(NC(C)=O)CCCCC1)[C@@H](C)O)C(=O)N[C@@H](Cc1c[nH]c2ccccc12)C(N)=O` [YA-266, Ac-A6c-Asn-Thr-Phe-azaG-Leu-Arg(Me)-Trp-NH2] (Ac-[Ac6c]NTF[azaGly]L[Arg(Me)]W-NH2), the EC50 was 0.32 nM. On the same count and under the same terms, for `CCCCCCCCCCCCCCCC(=O)NCCOCCOCCOCCOCCOCCOCCOCCOCCC(=O)NCC(=O)NCC(=O)N[C@H](Cc1ccc(O)cc1)C(=O)NC1(C(=O)N[C@@H](CC(N)=O)C(=O)N[C@H](C(=O)N[C@@H](Cc2ccccc2)C(=O)NNC(=O)N[C@@H](CC(C)C)C(=O)N[C@@H](CCCNC(=N)NC)C(=O)N[C@@H](Cc2c[nH]c3ccccc23)C(N)=O)[C@@H](C)O)CCCCC1` [YA-268, Palm-PEG8-G-G-DY-A6c-Asn-Thr-Phe-azaG-Leu-Arg(Me)-Trp-NH2] ({Palmitoyl-PEG8}-GG[dY][Ac6c]NTF[azaGly]L[Arg(Me)]W-NH2) the value was 0.02 nM; for `CNC(=N)NCCC[C@H](NC(=O)[C@H](CC(C)C)NC(=O)CCC(=O)[C@H](Cc1ccccc1)NC(=O)[C@@H](NC(=O)[C@H](CC(N)=O)NC(=O)[C@@H]1C[C@@H](O)CN1C(=O)[C@@H](Cc1ccc(O)cc1)NC(C)=O)[C@@H](C)O)C(=O)N[C@@H](Cc1c[nH]c2ccccc12)C(N)=O` [YA-274, M10 [Ac, D-Tyr45, Hyp46, des47, Thr49, (—CH2CH2CO—)51, Arg(Me)53, Trp54]] (Ac-[dY][Hyp]NT[X16]L[Arg(Me)]W-NH2; C-terminus assumed), 0.048 nM. Regarding `CNC(=N)NCCC[C@H](NC(=O)[C@H](CC(C)C)NC(=O)C1(NC(=O)[C@H](Cc2ccccc2)NC(=O)[C@@H](NC(=O)[C@H](CC(N)=O)NC(=O)[C@@H]2C[C@@H](O)CN2C(=O)[C@@H](Cc2ccc(O)cc2)NC(C)=O)[C@@H](C)O)CCCC1)C(=O)N[C@@H](Cc1c[nH]c2ccccc12)C(N)=O` [YA-282, Ac-(D-Tyr)-Hyp-Asn-Thr-Phe-cycloLeu-Leu-Arg(Me)-Trp-NH2] (Ac-[dY][Hyp]NTF[Ac5c]L[Arg(Me)]W-NH2), the EC50 was determined as 0.46 nM. Still for that read-out and setting: under `CCCCCCCCCCCCCCCC(=O)NCCOCCOCCOCCOCCOCCOCCOCCOCCC(=O)NCC(=O)NCC(=O)N[C@H](Cc1ccc(O)cc1)C(=O)N1C[C@H](O)C[C@H]1C(=O)N[C@@H](CC(N)=O)C(=O)N[C@H](C(=O)N[C@@H](Cc1ccccc1)C(=O)N1CC[C@H]1C(=O)N[C@@H](CC(C)C)C(=O)N[C@@H](CCCNC(=N)NC)C(=O)N[C@@H](Cc1c[nH]c2ccccc12)C(N)=O)[C@@H](C)O` [YA-287, Palm-PEG 8-Gly-Gly-D-Tyr-Hyp-Asn-Thr-Phe-Aze-Leu-Arg(Me)-Trp-NH2] ({Palmitoyl-PEG8}-GG[dY][Hyp]NTF[Aze]L[Arg(Me)]W-NH2) stands 0.038 nM; under `CNC(=N)NCCC[C@H](NC(=O)[C@H](CC(C)C)NC(=O)NNC(=O)[C@H](Cc1ccccc1)NC(=O)[C@@H](NC(=O)[C@H](CC(N)=O)NC(=O)[C@@H]1C[C@@H](O)CN1C(=O)[C@@H](Cc1ccc(O)cc1)NC(=O)CCNC(=O)CCNC(=O)[C@H](CCC(N)=O)NC(=O)[C@@H]1CCCN1C(=O)[C@H](CCCNC(=N)N)NC(=O)[C@H](CCCNC(=N)N)NC(=O)[C@H](CCCNC(=N)N)NC(=O)[C@H](CCC(N)=O)NC(=O)[C@H](CCCNC(=N)N)NC(=O)[C@H](CCCNC(=N)N)NC(=O)[C@H](CCCCN)NC(=O)[C@H](CCCCN)NC(=O)[C@H](CCCNC(=N)N)NC(=O)CNC(C)=O)[C@@H](C)O)C(=O)N[C@@H](Cc1c[nH]c2ccccc12)C(N)=O` [YA-291, Ac-Gly-Arg-Lys-Lys-Arg-Arg-Gln-Arg-Arg-Pro-Gln-(Beta-Ala)-(Beta-Ala)-(D-Tyr)-Hyp-Asn-Thr-Phe-Azag-Leu-Arg(Me)-Trp-NH2] (Ac-GRKKRRQRRRPQ[βAla][βAla][dY][Hyp]NTF[azaGly]L[Arg(Me)]W-NH2), 0.31 nM; under `CCCCCCCCC(=O)NCCOCCOCC(=O)N[C@H](Cc1ccc(O)cc1)C(=O)N1C[C@H](O)C[C@H]1C(=O)N[C@@H](CC(N)=O)C(=O)N[C@H](C(=O)N[C@@H](Cc1ccccc1)C(=O)NNC(=O)N[C@@H](CC(C)C)C(=O)N[C@@H](CCCNC(=N)NC)C(=O)N[C@@H](Cc1c[nH]c2ccccc12)C(N)=O)[C@@H](C)O` [YA-295, Nonanoyl-OEG-D-Tyr-Hyp-Asn-Thr-Phe-azaGly-Leu-Arg(Me)-Trp-NH2] ({Nonanoyl-AEEA}-[dY][Hyp]NTF[azaGly]L[Arg(Me)]W-NH2), 0.02 nM. On to `CCCCCCCCCCCC(=O)NCCOCCOCCOCCOCCOCCn1cc(CC(=O)N[C@H](Cc2ccc(O)cc2)C(=O)N2C[C@H](O)C[C@H]2C(=O)N[C@@H](CC(N)=O)C(=O)N[C@H](C(=O)N[C@@H](Cc2ccccc2)C(=O)NCNC(=S)C(CC(C)C)C(=O)N[C@@H](CCCNC(=N)NC)C(=O)N[C@@H](Cc2c[nH]c3ccccc23)C(N)=O)[C@@H](C)O)nn1` (stereo partly drawn) [YA-348, M10 [Dodecanoyl-PEG5-1,2,3- Triazole cyclic-Acetyl, D-Tyr45, Hyp46, des47, Thr49, Gψ(NHCS)51, Arg(Me)53, Trp54]] (X2-[dY][Hyp]NTF[X9][Arg(Me)]W-NH2), for which the concentration for a half-maximal effect (EC50) is 0.019 nM. In the case of `CNC(=N)NCCC[C@H](NC(=O)[C@H](CC(C)C)NC(=O)C1(NC(=O)[C@H](Cc2ccccc2)NC(=O)[C@@H](NC(=O)[C@H](CC(N)=O)NC(=O)[C@@H]2C[C@@H](O)CN2C(=O)[C@@H](Cc2ccc(O)cc2)NC(C)=O)[C@@H](C)O)CCOCC1)C(=O)N[C@@H](Cc1c[nH]c2ccccc12)C(N)=O` [YA-354, Ac-(D-Tyr)-Hyp-Asn-Thr-Phe-morpholino cyclic amino acid-Leu-Arg(Me)-Trp-NH2] (Ac-[dY][Hyp]NTF[Thp]L[Arg(Me)]W-NH2), the EC50 worked out at 0.26 nM. The same measure, in the same setting: for `CNC(=N)NCCC[C@H](NC(=O)[C@H](CC(C)C)NC(=O)[C@H](Cc1cscn1)NC(=O)[C@H](Cc1ccccc1)NC(=O)[C@@H](NC(=O)[C@H](CC(N)=O)NC(=O)[C@@H]1C[C@@H](O)CN1C(=O)[C@@H](Cc1ccc(O)cc1)NC(C)=O)[C@@H](C)O)C(=O)N[C@@H](Cc1c[nH]c2ccccc12)C(N)=O` [YA-357, Ac-(D-Tyr)-Hyp-Asn-Thr-Phe-Beta-(thiazoly-4-yl)-L-Ala-Leu-Arg(Me)-Trp-NH2] (Ac-[dY][Hyp]NTF[Ala(4-thiazolyl)]L[Arg(Me)]W-NH2) the value was 0.3 nM.

Regarding `CNC(=N)NCCC[C@H](NC(=O)[C@H](CC(C)C)NC(=O)NNC(=O)[C@H](Cc1ccccc1)NC(=O)[C@@H](NC(=O)[C@H](CC(N)=O)NC(=O)[C@@H]1C[C@@H](O)CN1C(=O)[C@@H](Cc1ccc(I)cc1)NC(C)=O)[C@@H](C)O)C(=O)N[C@@H](Cc1c[nH]c2ccccc12)C(N)=O` [YA-358, Ac-(D-Phe(4-I))-Hyp-Asn-Thr-Phe-azaGly-Leu-Arg(Me)-Trp-NH2] (Ac-[dPhe(4-I)][Hyp]NTF[azaGly]L[Arg(Me)]W-NH2), the EC50 turned out to be 0.032 nM. The same measure, in the same setting: under `CCCCCCCCCCCCCCCC(=O)NCCOCCOCCOCCOCCOCCOCCOCCOCCC(=O)NCC(=O)NCC(=O)N[C@H](Cc1ccc(I)cc1)C(=O)N1C[C@H](O)C[C@H]1C(=O)N[C@@H](CC(N)=O)C(=O)N[C@H](C(=O)N[C@@H](Cc1ccccc1)C(=O)NNC(=O)N[C@@H](CC(C)C)C(=O)N[C@@H](CCCNC(=N)NC)C(=O)N[C@@H](Cc1c[nH]c2ccccc12)C(N)=O)[C@@H](C)O` [YA-366, Palm-PEG8-Gly-Gly-(D-Phe(4-I))-Hyp-Asn-Thr-Phe-AzaGly-Leu-Arg(Me)-Trp-NH2] ({Palmitoyl-PEG8}-GG[dPhe(4-I)][Hyp]NTF[azaGly]L[Arg(Me)]W-NH2) stands 0.048 nM.

Staying with this experiment, now noted: human kiss1 receptor (GPR54), NFAT-bla CHO-K1 cells, FRET; preliminary data; method of effect Embodiment 1; read-out: Preliminary measurement data (GPR54) EC50.
For the molecule `CNC(=N)NCCC[C@H](NC(=O)[C@H](CC(C)C)NC(=O)C1(NC(=O)[C@H](Cc2ccccc2)NC(=O)[C@@H](NC(=O)[C@H](CC(N)=O)NC(=O)C2(NC(=O)[C@@H](Cc3ccco3)NC(C)=O)CCCCC2)[C@@H](C)O)CCCCC1)C(=O)N[C@@H](Cc1c[nH]c2ccccc12)C(N)=O` [YA-272, Ac-3-(2-furyl)-D-alanine-A6c-Asn-Thr-Phe-A6c-Leu-Arg(Me)-Trp-NH2] (Ac-[dAla(2-furyl)][Ac6c]NTF[Ac6c]L[Arg(Me)]W-NH2), the EC50 was found to be 7.95 nM. With `CNC(=N)NCCC[C@H](NC(=O)[C@H](CC(C)C)NC(=O)[C@H](CC1CCC1)NC(=O)[C@H](Cc1ccccc1)NC(=O)[C@@H](NC(=O)[C@H](CC(N)=O)NC(=O)[C@@H]1C[C@@H](O)CN1C(=O)[C@@H](Cc1ccc(O)cc1)NC(C)=O)[C@@H](C)O)C(=O)N[C@@H](Cc1c[nH]c2ccccc12)C(N)=O` [YA-284, Ac-(D-Tyr)-Hyp-Asn-Thr-Phe-Cba-Leu-Arg(Me)-Trp-NH2] (Ac-[dY][Hyp]NTF[Cba]L[Arg(Me)]W-NH2), the concentration giving a half-maximal response (EC50) was determined as 1.7 nM. Take `CNC(=N)NCCC[C@H](NC(=O)[C@H](CC(C)C)NC(=O)C1(CNC(=O)[C@H](Cc2ccccc2)NC(=O)[C@@H](NC(=O)[C@H](CC(N)=O)NC(=O)[C@@H]2C[C@@H](O)CN2C(=O)[C@@H](Cc2ccc(O)cc2)NC(C)=O)[C@@H](C)O)CC1)C(=O)N[C@@H](Cc1c[nH]c2ccccc12)C(N)=O` [YA-289, Ac-(D-Tyr)-Hyp-Asn-Thr-Phe-ACPA-Leu-Arg(Me)-Trp-NH2] (Ac-[dY][Hyp]NTF[cPrCO(1-aminomethyl)]L[Arg(Me)]W-NH2): the EC50 came to 42.6 nM. Take `CNC(=N)NCCC[C@H](NC(=O)[C@H](CC(C)C)NC(=O)CCNC(=O)[C@H](Cc1ccccc1)NC(=O)[C@@H](NC(=O)[C@H](CC(N)=O)NC(=O)[C@@H]1C[C@@H](O)CN1C(=O)[C@@H](Cc1ccc(O)cc1)NC(C)=O)[C@@H](C)O)C(=O)N[C@@H](Cc1c[nH]c2ccccc12)C(N)=O` [YA-337, Ac-(D-Tyr)-Hyp-Asn-Thr-Phe-BetaAla-Leu-Arg(Me)-Trp-NH2] (Ac-[dY][Hyp]NTF[βAla]L[Arg(Me)]W-NH2): the EC50 turned out to be 2.2 nM.

In the case of `CCC(CC)(NC(=O)[C@H](Cc1ccccc1)NC(=O)[C@@H](NC(=O)[C@H](CC(N)=O)NC(=O)[C@@H]1C[C@@H](O)CN1C(=O)[C@@H](Cc1ccc(O)cc1)NC(C)=O)[C@@H](C)O)C(=O)N[C@@H](CC(C)C)C(=O)N[C@@H](CCCNC(=N)NC)C(=O)N[C@@H](Cc1c[nH]c2ccccc12)C(N)=O` [YA-355, Ac-(D-Tyr)-Hyp-Asn-Thr-Phe-Deg-Leu-Arg(Me)-Trp-NH2] (Ac-[dY][Hyp]NTF[Deg]L[Arg(Me)]W-NH2), the EC50 came to 1.2 nM.
